Test results from patent publication US10670605B2, “Cysteine reactive probes and uses thereof” (The Scripps Research Institute, priority 2015, dated 2020).

How the values were obtained:
Assay in all cases: Competitive isoTOP-ABPP in situ (fragment-treated cells)
Assay type in all cases: cell-based
[1] = molecular target: cysteines in MDA-MB-231 and Ramos cells (Homo sapiens, UniProt Q8TAQ2)
[2] = molecular target: T1, cysteines in MDA-MB-231 and Ramos cells (Homo sapiens, UniProt Q13155)
T1 sequence (Q13155 1-320): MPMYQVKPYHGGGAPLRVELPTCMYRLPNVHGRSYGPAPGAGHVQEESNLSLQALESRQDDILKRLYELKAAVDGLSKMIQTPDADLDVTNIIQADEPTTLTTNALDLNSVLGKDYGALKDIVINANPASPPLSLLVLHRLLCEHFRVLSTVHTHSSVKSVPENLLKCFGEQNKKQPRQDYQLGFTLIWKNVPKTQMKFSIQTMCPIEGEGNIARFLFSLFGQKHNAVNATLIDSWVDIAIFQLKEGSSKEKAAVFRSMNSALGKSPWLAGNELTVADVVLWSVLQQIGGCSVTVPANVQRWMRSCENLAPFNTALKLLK

[3] = molecular target: T2, cysteines in MDA-MB-231 and Ramos cells (Homo sapiens, UniProt Q9NQC3)
T2 sequence (Q9NQC3 1-1192): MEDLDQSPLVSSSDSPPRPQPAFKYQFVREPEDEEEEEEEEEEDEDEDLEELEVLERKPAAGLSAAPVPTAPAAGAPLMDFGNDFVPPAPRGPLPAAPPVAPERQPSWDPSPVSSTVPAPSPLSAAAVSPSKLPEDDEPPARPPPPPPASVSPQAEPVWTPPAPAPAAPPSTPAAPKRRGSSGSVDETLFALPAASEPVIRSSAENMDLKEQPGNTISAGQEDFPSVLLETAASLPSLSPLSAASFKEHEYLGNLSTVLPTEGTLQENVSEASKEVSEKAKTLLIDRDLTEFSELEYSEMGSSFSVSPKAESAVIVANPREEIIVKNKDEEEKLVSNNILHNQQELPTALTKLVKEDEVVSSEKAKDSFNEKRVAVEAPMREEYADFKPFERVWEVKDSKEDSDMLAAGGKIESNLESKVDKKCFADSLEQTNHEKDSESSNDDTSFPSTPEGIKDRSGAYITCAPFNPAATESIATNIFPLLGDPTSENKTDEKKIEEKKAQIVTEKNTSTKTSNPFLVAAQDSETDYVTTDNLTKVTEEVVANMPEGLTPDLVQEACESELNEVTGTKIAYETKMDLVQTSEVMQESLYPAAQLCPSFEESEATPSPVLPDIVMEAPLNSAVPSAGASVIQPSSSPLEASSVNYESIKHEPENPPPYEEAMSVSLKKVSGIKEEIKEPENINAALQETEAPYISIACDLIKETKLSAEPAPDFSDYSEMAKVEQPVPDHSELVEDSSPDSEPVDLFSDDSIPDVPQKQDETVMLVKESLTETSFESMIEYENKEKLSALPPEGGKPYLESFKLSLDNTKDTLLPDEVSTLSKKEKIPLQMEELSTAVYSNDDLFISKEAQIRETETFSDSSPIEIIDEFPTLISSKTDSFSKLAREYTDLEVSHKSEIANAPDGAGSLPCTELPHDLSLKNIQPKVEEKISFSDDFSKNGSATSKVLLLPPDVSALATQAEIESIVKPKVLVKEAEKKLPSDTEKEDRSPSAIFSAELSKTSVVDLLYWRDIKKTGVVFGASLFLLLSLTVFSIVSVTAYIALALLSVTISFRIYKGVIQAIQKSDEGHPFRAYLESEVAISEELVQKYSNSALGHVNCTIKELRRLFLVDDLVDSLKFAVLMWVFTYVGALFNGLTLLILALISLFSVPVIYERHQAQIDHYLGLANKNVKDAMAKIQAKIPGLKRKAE

[4] = molecular target: T3, cysteines in MDA-MB-231 and Ramos cells (Homo sapiens, UniProt Q99497)
T3 sequence (Q99497 1-189): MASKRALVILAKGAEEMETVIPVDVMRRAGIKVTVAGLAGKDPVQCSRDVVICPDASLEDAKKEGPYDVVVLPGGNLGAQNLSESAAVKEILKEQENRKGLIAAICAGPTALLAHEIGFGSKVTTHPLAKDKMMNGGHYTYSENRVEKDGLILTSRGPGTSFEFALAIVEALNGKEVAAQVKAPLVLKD

[5] = molecular target: cysteines in MDA-MB-231 and Ramos cells (Homo sapiens, UniProt Q7Z2W4)
Sequence of cysteines in MDA-MB-231 and Ramos cells (Homo sapiens, UniProt Q7Z2W4) (Q7Z2W4 whole entry): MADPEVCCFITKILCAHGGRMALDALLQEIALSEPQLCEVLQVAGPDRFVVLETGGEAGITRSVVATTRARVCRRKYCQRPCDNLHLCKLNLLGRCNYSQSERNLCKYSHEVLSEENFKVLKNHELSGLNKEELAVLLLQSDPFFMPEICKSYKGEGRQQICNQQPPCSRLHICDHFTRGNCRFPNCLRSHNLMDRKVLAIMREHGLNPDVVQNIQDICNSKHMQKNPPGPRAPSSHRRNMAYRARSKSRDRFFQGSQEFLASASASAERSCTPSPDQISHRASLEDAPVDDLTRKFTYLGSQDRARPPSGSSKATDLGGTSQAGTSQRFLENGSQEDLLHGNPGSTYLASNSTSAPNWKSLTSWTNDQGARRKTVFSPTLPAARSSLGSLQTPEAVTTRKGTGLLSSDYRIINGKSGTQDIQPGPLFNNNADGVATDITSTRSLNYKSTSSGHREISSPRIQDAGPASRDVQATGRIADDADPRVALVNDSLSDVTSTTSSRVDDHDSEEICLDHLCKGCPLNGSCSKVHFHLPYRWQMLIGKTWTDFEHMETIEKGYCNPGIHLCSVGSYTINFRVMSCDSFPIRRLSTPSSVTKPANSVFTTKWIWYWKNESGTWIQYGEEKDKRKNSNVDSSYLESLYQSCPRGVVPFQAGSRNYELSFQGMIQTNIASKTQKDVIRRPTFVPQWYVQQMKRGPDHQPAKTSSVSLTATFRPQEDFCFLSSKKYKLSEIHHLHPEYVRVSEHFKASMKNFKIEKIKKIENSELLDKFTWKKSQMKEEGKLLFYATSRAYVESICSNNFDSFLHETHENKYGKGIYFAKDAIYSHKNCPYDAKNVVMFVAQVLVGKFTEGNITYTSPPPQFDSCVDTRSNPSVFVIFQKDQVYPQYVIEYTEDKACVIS

Sequence of cysteines in MDA-MB-231 and Ramos cells (Homo sapiens, UniProt Q8TAQ2) (Q8TAQ2 whole entry): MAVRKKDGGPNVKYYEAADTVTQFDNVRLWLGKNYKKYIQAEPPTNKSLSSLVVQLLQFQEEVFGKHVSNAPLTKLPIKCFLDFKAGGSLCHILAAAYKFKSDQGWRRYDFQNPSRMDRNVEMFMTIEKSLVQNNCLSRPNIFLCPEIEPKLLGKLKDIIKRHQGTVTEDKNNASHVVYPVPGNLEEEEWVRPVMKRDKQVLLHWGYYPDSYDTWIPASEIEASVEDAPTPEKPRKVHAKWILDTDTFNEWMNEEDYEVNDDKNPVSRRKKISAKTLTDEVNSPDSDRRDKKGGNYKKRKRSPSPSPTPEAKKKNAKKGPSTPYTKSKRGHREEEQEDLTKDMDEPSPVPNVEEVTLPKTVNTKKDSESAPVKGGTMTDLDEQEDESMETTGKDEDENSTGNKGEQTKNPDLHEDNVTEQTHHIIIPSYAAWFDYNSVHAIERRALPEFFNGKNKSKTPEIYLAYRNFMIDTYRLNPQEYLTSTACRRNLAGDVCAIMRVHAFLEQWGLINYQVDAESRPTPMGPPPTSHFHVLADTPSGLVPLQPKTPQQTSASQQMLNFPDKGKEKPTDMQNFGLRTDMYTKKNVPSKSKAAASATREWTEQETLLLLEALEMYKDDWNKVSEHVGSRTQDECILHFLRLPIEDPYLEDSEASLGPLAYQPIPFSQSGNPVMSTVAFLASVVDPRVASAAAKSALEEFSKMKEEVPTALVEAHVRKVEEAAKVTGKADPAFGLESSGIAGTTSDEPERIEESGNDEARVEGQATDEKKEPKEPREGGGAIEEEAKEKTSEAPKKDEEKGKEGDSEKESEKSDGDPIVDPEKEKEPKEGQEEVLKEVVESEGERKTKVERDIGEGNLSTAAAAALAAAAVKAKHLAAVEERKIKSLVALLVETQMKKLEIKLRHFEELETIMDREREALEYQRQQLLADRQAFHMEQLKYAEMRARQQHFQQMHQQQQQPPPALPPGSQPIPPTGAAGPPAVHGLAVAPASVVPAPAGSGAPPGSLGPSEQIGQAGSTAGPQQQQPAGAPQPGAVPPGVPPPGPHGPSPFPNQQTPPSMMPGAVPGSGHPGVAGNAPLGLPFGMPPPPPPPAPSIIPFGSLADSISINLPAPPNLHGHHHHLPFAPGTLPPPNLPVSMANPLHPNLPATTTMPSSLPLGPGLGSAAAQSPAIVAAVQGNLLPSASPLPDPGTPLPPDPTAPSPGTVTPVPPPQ

Structure (SMILES) | isoTOP-ABPP ratio Q99497_C106 ([4]; 200 μM, insitu, 231) | isoTOP-ABPP ratio Q13155_C23 ([2]; 200 μM, insitu, 231) | isoTOP-ABPP ratio Q13155_C291 ([2]; 200 μM, insitu, 231) | isoTOP-ABPP ratio Q9NQC3_C1101 ([3]; 200 μM, insitu, 231) | isoTOP-ABPP ratio Q7Z2W4_C645 ([5]; 200 μM, insitu, 231) | isoTOP-ABPP ratio Q8TAQ2_C145 ([1]; 200 μM, insitu, 231) | further results
COc1ccc2c(c1)CCCN2C(=O)CCl [compound 2] | – | – | – | – | – | – | isoTOP-ABPP reactivity Q8TAQ2_C145 SMARCC2 ([1]; 200 μM, insitu, 231): 4.6; isoTOP-ABPP reactivity Q13155_C291 AIMP2 ([2]; 200 μM, insitu, 231): 20.0; isoTOP-ABPP reactivity Q9NQC3_C1101 RTN4 ([3]; 200 μM, insitu, 231): 12.0
COc1ccc(C2CC(c3cccs3)=NN2C(=O)CCl)cc1 (stereo not shown) [compound 4] | – | – | – | – | – | – | isoTOP-ABPP reactivity Q99497_C106 PARK7 ([4]; 100 μM in situ 231): 0.9; isoTOP-ABPP reactivity Q8TAQ2_C145 SMARCC2 ([1]; 100 μM in situ 231): 3.1; isoTOP-ABPP reactivity Q13155_C23 AIMP2 ([2]; 100 μM in situ 231): 2.8; isoTOP-ABPP reactivity Q13155_C291 AIMP2 ([2]; 100 μM in situ 231): 20.0; isoTOP-ABPP reactivity Q9NQC3_C1101 RTN4 ([3]; 100 μM in situ 231): 20.0; isoTOP-ABPP reactivity Q7Z2W4_C645 ZC3HAV1 ([5]; 100 μM in situ 231): 4.4
COc1cc2c(cc1OC)CN(C(=O)CCl)CC2 [compound 8] | – | – | – | – | – | – | isoTOP-ABPP reactivity Q13155_C23 AIMP2 ([2]; 200 μM, insitu, 231): 2.7; isoTOP-ABPP reactivity Q13155_C291 AIMP2 ([2]; 200 μM, insitu, 231): 2.4; isoTOP-ABPP reactivity Q7Z2W4_C645 ZC3HAV1 ([5]; 200 μM, insitu, 231): 5.1
O=C(CCl)N1CCC(Cc2ccccc2)CC1 [compound 9] | – | – | – | – | – | – | isoTOP-ABPP reactivity Q13155_C291 AIMP2 ([2]; 200 μM, insitu, 231): 1.9; isoTOP-ABPP reactivity Q9NQC3_C1101 RTN4 ([3]; 200 μM, insitu, 231): 20.0; isoTOP-ABPP reactivity Q7Z2W4_C645 ZC3HAV1 ([5]; 200 μM, insitu, 231): 3.0
O=C(CCl)N1CCN(S(=O)(=O)c2ccccc2F)CC1 [compound 10] | 1.7 | 2.3 | 1.7 | 20.0 | 3.8 | – | isoTOP-ABPP ratio Q8TAQ2_C145 ([1]; 200 μM, insitu, ramos): 20.0
Cn1cc(S(=O)(=O)N2CCOCC2)cc1C(=O)NC(=O)CCl [compound 11] | – | – | – | – | – | – | isoTOP-ABPP ratio Q99497_C106 ([4]; 100 μM in situ 231): 1.3; isoTOP-ABPP ratio Q8TAQ2_C145 ([1]; 100 μM in situ 231): 7.6; isoTOP-ABPP ratio Q13155_C23 ([2]; 100 μM in situ 231): 1.2; isoTOP-ABPP ratio Q13155_C291 ([2]; 100 μM in situ 231): 0.9; isoTOP-ABPP ratio Q9NQC3_C1101 ([3]; 100 μM in situ 231): 1.1; isoTOP-ABPP ratio Q7Z2W4_C645 ([5]; 100 μM in situ 231): 1.0
O=C(CCl)NC(=O)NC12CC3CC(CC(C3)C1)C2 [compound 12] | 3.0 | 1.6 | 1.1 | 20.0 | 3.3 | – | –
CC(C)CCOCCNC(=O)CCl [compound 27] | 0.9 | 0.7 | 0.7 | 1.4 | 0.8 | 2.1 | –
COc1ccccc1OCCNC(=O)CCl [compound 28] | 1.0 | – | 0.9 | – | – | 0.9 | –
O=C(CCl)N1CCN(CC(=O)N2CCOCC2)CC1 [compound 29] | – | – | – | – | – | – | isoTOP-ABPP ratio Q8TAQ2_C145 ([1]; 200 μM, insitu, ramos): 2.7; isoTOP-ABPP ratio Q13155_C23 ([2]; 200 μM, insitu, ramos): 1.6; isoTOP-ABPP ratio Q7Z2W4_C645 ([5]; 200 μM, insitu, ramos): 1.6
C=CC(=O)Nc1cc(F)c(N2CCN(C(=O)OC(C)(C)C)CC2)c(F)c1 [compound 38] | 1.1 | 1.4 | 1.7 | 20.0 | 0.9 | 1.3 | –
Cc1ccc(C=C(C#N)C(=O)NCCN2CCOCC2)cc1 [compound 41] | 0.6 | – | 0.7 | 1.0 | 0.9 | 1.2 | –

The next lines start with results.

isoTOP-ABPP ratio Q99497_C106 ([4]; 200 μM, insitu, 231) | isoTOP-ABPP ratio Q13155_C23 ([2]; 200 μM, insitu, 231) | isoTOP-ABPP ratio Q13155_C291 ([2]; 200 μM, insitu, 231) | isoTOP-ABPP ratio Q9NQC3_C1101 ([3]; 200 μM, insitu, 231) | isoTOP-ABPP ratio Q7Z2W4_C645 ([5]; 200 μM, insitu, 231) | isoTOP-ABPP ratio Q8TAQ2_C145 ([1]; 200 μM, insitu, 231) | Structure (SMILES) | further results
– | 0.9 | – | – | 1.3 | 1.1 | O=C(CCl)NCCc1c[nH]c2ccccc12 [compound 13] | isoTOP-ABPP ratio Q99497_C106 ([4]; 200 μM, insitu, ramos): 3.3; isoTOP-ABPP ratio Q7Z2W4_C645 ([5]; 200 μM, insitu, ramos): 0.9
– | 0.9 | 0.8 | 2.1 | 0.9 | 1.6 | O=C(CCl)NC12CC3CC(CC(C3)C1)C2 [compound 21] | –
0.8 | – | 0.8 | 12.8 | – | 0.8 | C=CC(=O)N(Cc1cccnc1)c1cc(C(F)(F)F)cc(C(F)(F)F)c1 [compound 31] | isoTOP-ABPP ratio Q99497_C106 ([4]; 200 μM, insitu, ramos): 1.0; isoTOP-ABPP ratio Q8TAQ2_C145 ([1]; 200 μM, insitu, ramos): 1.1
20.0 | 4.4 | 7.3 | – | 4.6 | 2.9 | CC1CCc2ccccc2N1C(=O)CCl (stereo not shown) [compound 45] | –
1.4 | 1.2 | 1.1 | 1.2 | 1.6 | 1.2 | O=C(CCl)Nc1cccc2ncccc12 [compound 51] | –
